Patent US20180186968A1, “AGENT FOR SUPPRESSING ODORS OF POLYSULFIDE COMPOUNDS” (KAO CORPORATION, priority 2015, published 2018)

Assays:
olfactory receptor OR4S2 [1] = target: T1, olfactory receptor OR4S2 (Homo sapiens, UniProt Q8NH73); assay: Luciferase reporter gene assay: suppression of OR4S2 response to DMDS or DMTS by test substance (OR4S2 antagonist search); format: cell-based; conditions: for response of OR4S2 to DMDS in the presence of test substance (Response %): DMDS 1 mM, test substance 0 to 3000 μM, FIG. 4; for response of OR4S2 to DMTS in the presence of test substance (Fold increase): DMTS 300 μM, test substance 100 μM, FIG. 5
T1 construct: Flag-Rho tag (N); expressed in transfected cells; host or cells: HEK293
T1 sequence (Q8NH73 1-311): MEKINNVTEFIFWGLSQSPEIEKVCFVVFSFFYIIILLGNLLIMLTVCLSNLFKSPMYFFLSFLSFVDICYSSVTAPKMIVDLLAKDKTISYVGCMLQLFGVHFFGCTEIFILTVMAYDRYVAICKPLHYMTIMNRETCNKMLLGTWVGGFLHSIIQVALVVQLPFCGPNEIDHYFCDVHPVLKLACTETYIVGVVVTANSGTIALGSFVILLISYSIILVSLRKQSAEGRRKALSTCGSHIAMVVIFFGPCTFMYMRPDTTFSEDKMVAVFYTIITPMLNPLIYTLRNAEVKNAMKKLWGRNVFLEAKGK
Procedure: By using the same procedure as in Example 1 (1) to (3), HEK293 cells expressing OR4S2 (SEQ ID NO: 1) were prepared. The response of the olfactory receptor to DMDS (the value fLuc/hRluc) was measured in the presence and absence of a test substance by using luciferase reporter gene assay in accordance with the procedure in Example 1 (4). The value fLuc/hRluc induced by a stimulus of single DMDS, (X), the value fLuc/hRluc for cells without a stimulus of DMDS, (Y), and the value fLuc/hRluc induced by a co-stimulus of DMDS and a test substance, (Z), were determined, and the intensity of the response (Response (%)) of the receptor to DMDS in the presence of a test substance was determined by using the following formula.
Response (%)=(Z−Y)/(X−Y)×100
The experiment s performed independently three times, and the average value of the experiments was determined. The concentration of DMDS to be added to a culture was set a 1 mM, and the concentration of a test substance to be added was changed in the range of 0 to 3000 μM.
For the response to DMTS, the value fLuc/hRluc to a stimulus of single DMTS, (X′), was divided by the value fLuc/hRluc for cells without a stimulus of DMTS, (Y), and the calculated value, (X′/Y), was calculated as a value of the response to DMTS Fold increase). To compare the effect of a test substance on the response to DMTS, the value fLuc/hRluc induced by a co-stimulus of DMTS and a test substance, (Z′), was similarly divided by the value fLuc/hRluc for cells without a stimulus, (Y), to calculate (Z′/Y) as Fold increase. The experiment was performed independently three times, and the average value of the experiments was determined. The concentration of DMTS to be added to a culture was set at 300 μM, and the concentration of a test substance to be added set at 100 μM.

[2] = Sensory test of odor-suppressing effect for polysulfide compounds; format: in vivo, human; conditions: for odor intensity of DMTS (sensory evaluation): 0.01% (v/v) DMTS and 0.1% (v/v) test substance in mineral oil, 11 evaluators, FIG. 7; for odor intensity of DMDS (sensory evaluation): 0.1% (v/v) DMDS and 0.1% (v/v) test substance in mineral oil, 10 evaluators, FIG. 6
Procedure: The odor-suppressing effect of each of trimethylhexyl aldehyde (THA), cis-4-heptenal, and 1,4-cineol, as the OR4S2 antagonists identified in Example 2, for polysulfide compounds was checked in a sensory test.
For each of DMDS, THA, cis-4-heptenal, and 1,4-cineol, a 0.1% (v/v) solution in mineral oil was prepared. For DMTS, a 0.01% (v/v) solution in mineral oil was prepared. Two cotton balls were put in 20 mL glass bottle (Maruemu Corporation, No. 6), and one cottonball was impregnated with 30 μL of the DMDS or DMTS solution, and the other cotton ball was impregnated with 30 μL of a solution of one of the three OR4S2 antagonists. The glass bottle containing the cotton balls was covered with a lid, and left to stand at 37° C. for 1 hour, and thereafter used as a test sample for a sensory test. Glass bottles containing only cotton ball impregnated with the DMDS or DMTS solution were prepared as reference samples, and a glass bottle containing only cotton ball impregnated with mineral oil (Vehicle) was prepared as a control sample.
A sensory test was performed in a single-blinded mode with 10 evaluators for DMDS and 11evaluators for DMTS. The test was initiated after two o'clock pm, which was 1.5 hours or longer after a meal. To prevent diffusion of a smell, the test was performed essentially under a fume hood. To eliminate the influence of adaptation to odors of polysulfide compounds, the evaluators were appropriately checked for the intensity of recognition to the odor of DMDS or DMTS in the test, and rested as necessary. The evaluators were separated into two groups, and one group evaluated the odor-suppressing effect for DMDS or DMTS with respect to THA, cis-4-heptenal, and 1,4-cineol, in the presented, and the other group evaluated in with respect to 1,4-cineol, cis-4-heptenal, and THA, in the order presented. Each test sample was replaced with another one after evaluation by each of three evaluators.
In evaluation of odors of test samples, the following criteria in five grades were set for each evaluator; “odor of DMDS (or DMTS) was 1: unidentifiable, 2: perceivable, 3: easily identifiable, 4: strong, 5: intolerably strong”, and the evaluators rated the odor intensity of DMDS (or DMTS) for each test sample in nine grades from 1.0 to 5.0 at an interval of 0.5, where the odor intensity of single DMDS (or DMTS) was assumed as 3. The average value of the evaluation results by the evaluators was determined.

olfactory receptor OR4S2 [3] = target: T1, olfactory receptor OR4S2; assay: Luciferase reporter gene assay: response of olfactory receptor to sulfur compounds; format: cell-based; conditions: for response of olfactory receptor OR4S2 to polysulfide compound (fold increase): 100 μM polysulfide compound, 428 olfactory receptors measured, HEK293 cells, FIG. 1; for response of OR4S2 at different concentrations: HEK293 cells expressing OR4S2, FIG. 2
From the text: A human olfactory receptor cloned using the PCR method with human genomic DNA (G1521:Promega Corporation) as a template on the basis of sequence information registered in GenBank. Each gene amplified through the PCR method was incorporated into a pENTR vector (Invitrogen) in accordance with the manual, and recombined, by utilizing the NotI and AscI sites present in the pENTR vector, with a pME18S vector at the NotI and AscI sites produced in the downstream of he Flag-Rho tag sequence of the pME18S vector. • (2) Preparation of pME18S-human RTP1S Vector
A vector expressing receptor-transporting protein (RTP), a protein which promotes the expression of an olfactory receptor polypeptide on the cell membrane, was prepared. Specifically, a gene encoding human RTP1S (GI: 50234917) was incorporated into a pME18S vector at the EcoRI and XhoI sites thereof. • (3) Preparation of Olfactory Receptor-expressing Cells
HEK293 cells expressing any one of human olfactory receptors were produced. A reaction solution with a composition shown in Table 2 was prepared and left to stand in a clean bench for 15 minutes, and then added to each well of a 96-well plate (BD Biosciences). Subsequently, 90 μL of HEK293 cells (3×10^5 cells/cm^2) was seeded in each well, and cultured in an incubator retained at 37° C. and 5% CO2 for 24 hours. As a control, cells with conditions for no expression of an olfactory receptor (Mock) were prepared and used in an experiment.
An olfactory receptor expressed on HEK293 cells increases the intracellular cAMP level through conjugation with the intracellular Gas followed by resulting activation of adenylate cyclase. For smell response measurement in this study, luciferase reporter gene assay was used in which increase of the intracellular cAMP level is monitored as an emission value derived from a firefly luciferase gene (fluc2P-CRE-hygro). Transgenesis was simultaneously performed by using a product with a sea pansy luciferase gene fused to the downstream of the CMV promoter (hRluc-CMV), and the resultant was used as an internal standard to correct errors of transgenesis efficiency and the number of cells.
The medium was removed from the culture prepared in the above(3), and 75 μL of a solution containing a polysulfide compound prepared with DMEM (NACALAI TESQUE, INC.) was added. The polysulfide compound was 100 μM of dimethyl disulfide (DMDS) or dimethyl trisulfide (DMTS). The cells were cultured in a CO2 incubator for 3 hours to allow the luciferase gene to be sufficiently expressed in the cells. Measurement of the activity of luciferase was performed by using a Dual-Glo (TM) luciferase assay system (Promega Corporation) in accordance with an operation manual of the product. For each stimulus condition, the value fLuc/hRluc was calculated by dividing the emission value derived from sea pansy luciferase. The value fLuc/hRluc derived from firefly luciferase and induced by a stimulus of a polysulfide compound was divided by the value fLuc/hRluc for cells without a stimulus of a polysulfide compound to calculate a fold increase, and the fold increase was used as an indicator of intensity of response. • (5) Results

| response of OR4S2 to DMTS in the presence of test substance (Fold increase) (olfactory receptor OR4S2 [1]) | Molecule | response of OR4S2 to DMDS in the presence of test substance (Response %) (olfactory receptor OR4S2 [1]) | odor intensity of DMTS (sensory evaluation) [2] | odor intensity of DMDS (sensory evaluation) [2] | also measured |
| --- | --- | --- | --- | --- | --- |
| suppressed the response of OR4S2 to DMTS | CC(C)C12CCC(C)(CC1)O2 [1,4-cineol, 1,4-Cineole] | suppressed the response of OR4S2 to DMDS in a concentration-dependent manner | suppressed the odor intensity | suppressed the odor intensity | – |
| suppressed the response of OR4S2 to DMTS | CC(CC=O)CC(C)(C)C (stereo not drawn) [Trimethylhexyl aldehyde, 3,5,5-Trimethylhexanal] | suppressed the response of OR4S2 to DMDS in a concentration-dependent manner | suppressed the odor intensity | suppressed the odor intensity | – |
| suppressed the response of OR4S2 to DMTS | CCCCOC(=O)C(C)CC (stereo not drawn) [butyl 2-methylbutanoate, Butyl 2-methylbutanoate] | suppressed the response of OR4S2 to DMDS in a concentration-dependent manner | – | – | – |
| suppressed the response of OR4S2 to DMTS | CC/C=C\CCC=O [cis-4-heptenal, (Z)-Hept-4-enal] | suppressed the response of OR4S2 to DMDS in a concentration-dependent manner | suppressed the odor intensity | suppressed the odor intensity | – |

More lines, now with the values behind:

| Molecule | response of OR4S2 to DMTS in the presence of test substance (Fold increase) (olfactory receptor OR4S2 [1]) | response of OR4S2 to DMDS in the presence of test substance (Response %) (olfactory receptor OR4S2 [1]) | odor intensity of DMTS (sensory evaluation) [2] | odor intensity of DMDS (sensory evaluation) [2] | also measured |
| --- | --- | --- | --- | --- | --- |
| CSSC [DMDS, Dimethyl disulfide] | – | – | – | – | response of olfactory receptor OR4S2 to polysulfide compound (fold increase) (olfactory receptor OR4S2 [3]): exhibits a specific response; response of OR4S2 at different concentrations (olfactory receptor OR4S2 [3]): concentration-dependent manner |
| CSSSC [DMTS, Dimethyl trisulfide] | – | – | – | – | response of olfactory receptor OR4S2 to polysulfide compound (fold increase) (olfactory receptor OR4S2 [3]): exhibits a specific response; response of OR4S2 at different concentrations (olfactory receptor OR4S2 [3]): concentration-dependent manner |
| C=C(C)[C@H]1CC=C(C)CC1 [dipentene, Dipentene] | – | suppressed the response of OR4S2 to DMDS in a concentration-dependent manner | – | – | – |
| CS [methylmercaptan, Methylmercaptan] | – | – | – | – | response of OR4S2 to methylmercaptan (olfactory receptor OR4S2 [3]; 3 mm test substance, FIG. 3): did not respond |
| CC1=CC=C(C(C)C)CC1 [α-terpinene, p-Mentha-1,3-diene] | suppressed the response of OR4S2 to DMTS | suppressed the response of OR4S2 to DMDS in a concentration-dependent manner | – | – | – |
| (+)-Limonene oxide | suppressed the response of OR4S2 to DMTS | suppressed the response of OR4S2 to DMDS in a concentration-dependent manner | – | – | – |
